Measured values from patent US20250134863A1, “MEDICAL AGENT FOR TREATING OR SUPPRESSING PROGRESSION OF AMYOTROPHIC LATERAL SCLEROSIS” (MITSUBISHI TANABE PHARMA CORPORATION, priority 2022, published 2025).

Test system: ALS patients
Experiment: MCI186-19 trial (19 trial), randomized double-blind placebo-controlled phase 3, edaravone injection, ALSFRS-R
Format: in vivo, human
Settings: edaravone group, placebo −7.50±0.66, p=0.0013
Description: Clinical trials using edaravone injections include two-group phase 3 trials. In the first phase 3 trials [MCI186-16 trial (hereinafter referred to as the 16 trial) and MCI186-17 trial (hereinafter referred to as the 17 trial)], it was shown that edaravone was involved in suppressing decline in ALS function compared to placebo, as evaluated by an ALSFRS-R total score. A subgroup showing a significant therapeutic effect of Edaravone has been identified by the 16 trial, and an inclusion criterion for this subgroup is also used in designing a second major phase 3 trial, that is, a 19 trial (MCI186-19).
Edaravone was administered at a dose of 60 mg by intravenous infusion over 60 minutes, once daily. The infusion was given for 14 days in the first treatment cycle, and for 10 days out of the 14-day treatment period in all subsequent cycles. A 14-day drug holiday period was provided after each treatment cycle.
The MCI186-19 trial (hereinafter referred to as the 19 trial) was a randomized, double-blind, parallel-group, placebo-controlled trial. Details of the trial are as described in NCT01492686, Reference 3 (Lancet Neurol 2017; 16 (7): 505-512) and Reference 4 (Amyotroph Lateral Scler Frontotemporal Degener 2017; 18 (suppl 1): 55-63). […]

In the case of `CC1=NN(c2ccccc2)C(=O)C1` [edaravone, 3-methyl-1-phenyl-2-pyrazolin-5-one], the “LS mean±standard error of the change in ALSFRS-R from baseline to 24 weeks” value is reported as −5.01±0.64.
